Measurements as given in patent US9034884B2, “Heterocyclic-substituted pyrrolopyridines and pyrrolopyrimidines as JAK inhibitors” (Incyte Corporation, priority 2010, dated 2015).

Legend:
[1] = target: T1, JAK2 (a.a. 828-1132) catalytic domain (Homo sapiens, UniProt O60674); assay: In vitro JAK kinase assay (HTRF, phosphorylation of biotinylated peptide), JAK2; type: biochemical; conditions: ATP 1 mM
T1 construct: JAK2 (a.a. 828-1132); His tag (N); made in house; host or cells: insect cells (baculovirus)
T1 sequence (O60674 828-1132): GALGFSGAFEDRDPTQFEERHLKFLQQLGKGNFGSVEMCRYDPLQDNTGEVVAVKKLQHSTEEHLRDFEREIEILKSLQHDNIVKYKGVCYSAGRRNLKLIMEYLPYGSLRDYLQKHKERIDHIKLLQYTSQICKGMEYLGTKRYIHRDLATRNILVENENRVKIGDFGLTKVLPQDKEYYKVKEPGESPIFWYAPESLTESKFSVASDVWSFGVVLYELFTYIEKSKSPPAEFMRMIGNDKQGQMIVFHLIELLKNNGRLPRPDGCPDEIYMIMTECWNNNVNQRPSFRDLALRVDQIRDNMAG
Protocol: Compounds herein were tested for inhibitory activity of JAK targets according to the following in vitro assay described in Park et al., Analytical Biochemistry 1999, 269, 94-104. The catalytic domains of human JAK1 (a.a. 837-1142) and JAK2 (a.a. 828-1132) with an N-terminal His tag were expressed using baculovirus in insect cells and purified. The catalytic activity of JAK1 and JAK2 was assayed by measuring the phosphorylation of a biotinylated peptide. The phosphorylated peptide was detected by homogenous time resolved fluorescence (HTRF). […] For the 1 mM IC50 measurements, ATP concentration in the reactions was 1 mM. Reactions were carried out at room temperature for 1 hour and then stopped with 20 μL 45 mM EDTA, 300 nM SA-APC, 6 nM Eu-Py20 in assay buffer (Perkin Elmer, Boston, Mass.). Binding to the Europium labeled antibody took place for 40 minutes and HTRF signal was measured on a Fusion plate reader (Perkin Elmer, Boston, Mass.). See Tables A and B for data related to compounds of the invention (at 1 mM). Data is indicated as ranges, wherein “+” is less than 5 nM; “++” is 5 nM to 25 nM; “+++” is greater than 25 nM to 100 nM; and “++++” is greater than 100 nM.

[2] = target: T2, human JAK1 (a.a. 837-1142) catalytic domain (Homo sapiens, UniProt P23458); assay: In vitro JAK kinase assay (HTRF, phosphorylation of biotinylated peptide), JAK1; type: biochemical; conditions: ATP 1 mM
T2 construct: human JAK1 (a.a. 837-1142); His tag (N); made in house; host or cells: insect cells (baculovirus)
T2 sequence (P23458 849-1154): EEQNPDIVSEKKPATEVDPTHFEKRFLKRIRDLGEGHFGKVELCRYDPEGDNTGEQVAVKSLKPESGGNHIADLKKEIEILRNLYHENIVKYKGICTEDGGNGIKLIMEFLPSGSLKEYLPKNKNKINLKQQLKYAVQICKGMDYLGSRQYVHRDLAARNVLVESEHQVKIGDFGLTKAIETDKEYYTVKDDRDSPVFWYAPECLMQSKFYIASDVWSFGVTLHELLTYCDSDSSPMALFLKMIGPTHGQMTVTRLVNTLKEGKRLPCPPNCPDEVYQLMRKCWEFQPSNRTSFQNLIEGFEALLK
Protocol: Compounds herein were tested for inhibitory activity of JAK targets according to the following in vitro assay described in Park et al., Analytical Biochemistry 1999, 269, 94-104. The catalytic domains of human JAK1 (a.a. 837-1142) and JAK2 (a.a. 828-1132) with an N-terminal His tag were expressed using baculovirus in insect cells and purified. The catalytic activity of JAK1 and JAK2 was assayed by measuring the phosphorylation of a biotinylated peptide. The phosphorylated peptide was detected by homogenous time resolved fluorescence (HTRF). […] For the 1 mM IC50 measurements, ATP concentration in the reactions was 1 mM. Reactions were carried out at room temperature for 1 hour and then stopped with 20 μL 45 mM EDTA, 300 nM SA-APC, 6 nM Eu-Py20 in assay buffer (Perkin Elmer, Boston, Mass.). Binding to the Europium labeled antibody took place for 40 minutes and HTRF signal was measured on a Fusion plate reader (Perkin Elmer, Boston, Mass.). […] Data is indicated as ranges, wherein “+” is less than 5 nM; “++” is 5 nM to 25 nM; “+++” is greater than 25 nM to 100 nM; and “++++” is greater than 100 nM.

IC50 ([1]; Table A) [nM] | IC50 ([2]; Table B) [nM] | IC50 ([1]; Table B) [nM] | IC50 ([2]; Table A) [nM] | SMILES
5 to 25 | – | – | < 5 | CNC(=O)c1cc(F)cc(OC2CCN(CC(CC#N)n3cc(-c4ncnc5[nH]ccc45)cn3)CC2)c1 (stereo not shown) [Example 7, 3-[(1-{3-Cyano-2-[4-(7H-pyrrolo[2,3-d]pyrimidin-4-yl)-1H-pyrazol-1-yl]propyl}piperidin-4-yl)oxy]-5-fluoro-N-methylbenzamide tris(trifluoroacetate)]
5 to 25 | – | – | < 5 | CCNC(=O)c1cc(F)cc(OC2CCN(CC(CC#N)n3cc(-c4ncnc5[nH]ccc45)cn3)CC2)c1 (stereo not shown) [Example 9, 3-[(1-{3-Cyano-2-[4-(7H-pyrrolo[2,3-d]pyrimidin-4-yl)-1H-pyrazol-1-yl]propyl}piperidin-4-yl)oxy]-N-ethyl-5-fluorobenzamide]
5 to 25 | – | – | < 5 | N#CCC(CN1CCC(Oc2cc(F)cc(C(=O)NC3CC3)c2)CC1)n1cc(-c2ncnc3[nH]ccc23)cn1 (stereo not shown) [Example 10, 3-[(1-{3-Cyano-2-[4-(7H-pyrrolo[2,3-d]pyrimidin-4-yl)-1H-pyrazol-1-yl]propyl}piperidin-4-yl)oxy]-N-cyclopropyl-5-fluorobenzamide]
5 to 25 | – | – | < 5 | N#CCCNC(=O)c1cc(F)cc(OC2CCN(CC(CC#N)n3cc(-c4ncnc5[nH]ccc45)cn3)CC2)c1 (stereo not shown) [Example 12, N-(2-Cyanoethyl)-3-[(1-{3-cyano-2-[4-(7H-pyrrolo[2,3-d]pyrimidin-4-yl)-1H-pyrazol-1-yl]propyl}piperidin-4-yl)oxy]-5-fluorobenzamide tris(trifluoroacetate)]
5 to 25 | – | – | < 5 | N#CCC(CN1CCC(Oc2cc(F)cc(C(=O)N3CCCC3)c2)CC1)n1cc(-c2ncnc3[nH]ccc23)cn1 (stereo not shown) [Example 13, 4-{4-[3-Fluoro-5-(pyrrolidin-1-ylcarbonyl)phenoxy]piperidin-1-yl}-3-[4-(7H-pyrrolo[2,3-d]pyrimidin-4-yl)-1H-pyrazol-1-yl]butanenitrile tris(trifluoroacetate)]
5 to 25 | – | – | < 5 | N#CCC(CN1CCC(Oc2cc(F)cc(C(=O)NCCC(N)=O)c2)CC1)n1cc(-c2ncnc3[nH]ccc23)cn1 (stereo not shown) [Example 14, N-(3-Amino-3-oxopropyl)-3-[1(1-{3-cyano-2-[4-(7H-pyrrolo[2,3-d]pyrimidin-4-yl)-1H-pyrazol-1-yl]propyl}piperidin-4-yl)oxy]-5-fluorobenzamide tris(trifluoroacetate)]
5 to 25 | – | – | < 5 | N#CCC(CN1CCC(Oc2cc(F)cc(C(=O)NCCN3CCOCC3)c2)CC1)n1cc(-c2ncnc3[nH]ccc23)cn1 (stereo not shown) [Example 16, 3-[(1-{3-Cyano-2-[4-(7H-pyrrolo[2,3-d]pyrimidin-4-yl)-1H-pyrazol-1-yl]propyl}piperidin-4-yl)oxy]-5-fluoro-N-(2-morpholin-4-ylethyl)benzamide tris(trifluoroacetate)]
5 to 25 | – | – | < 5 | N#CCC(CN1CCC(Oc2cc(F)cc(C(=O)N3CCCCC3)c2)CC1)n1cc(-c2ncnc3[nH]ccc23)cn1 (stereo not shown) [Example 17, 4-{4-[3-Fluoro-5-(piperidin-1-ylcarbonyl)phenoxy]piperidin-1-yl}-3-[4-(7H-pyrrolo[2,3-d]pyrimidin-4-yl)-1H-pyrazol-1-yl]butanenitrile]

The remaining lines, values behind:

SMILES | IC50 ([1]; Table A) [nM] | IC50 ([2]; Table B) [nM] | IC50 ([1]; Table B) [nM] | IC50 ([2]; Table A) [nM]
CN(C)Cc1cc(F)cc(OC2CCN(CC(CC#N)n3cc(-c4ncnc5[nH]ccc45)cn3)CC2)c1 (single isomer, unassigned) [Example 20 Enantiomer 2, 4-(4-{3-[(Dimethylamino)methyl]-5-fluorophenoxy}piperidin-1-yl)-3-[4-(7H-pyrrolo[2,3-d]pyrimidin-4-yl)-1H-pyrazol-1-yl]butanenitrile (chiral)] | 5 to 25 | – | – | –
N#CCC(CN1CCC(Oc2cc(F)cc(C#N)c2)C(F)C1)n1cc(-c2ncnc3[nH]ccc23)cn1 (single isomer, unassigned) [Example 31 diastereomer 1, 3-[(1-{3-Cyano-2-[4-(7H-pyrrolo[2,3-d]pyrimidin-4-yl)-1H-pyrazol-1-yl]propyl}-3-fluoropiperidin-4-yl)oxy]-5-fluorobenzonitrile (two diastereomers)] | – | 5 to 25 | 25 to 100 | –
N#CCC(CN1CCC(Oc2cc(F)cc(C#N)c2)C(F)C1)n1cc(-c2ncnc3[nH]ccc23)cn1 (single isomer, unassigned) [Example 31 diastereomer 2, 3-[(1-{3-Cyano-2-[4-(7H-pyrrolo[2,3-d]pyrimidin-4-yl)-1H-pyrazol-1-yl]propyl}-3-fluoropiperidin-4-yl)oxy]-5-fluorobenzonitrile (two diastereomers)] | – | < 5 | 25 to 100 | –
C[C@@H]1CCCN1Cc1cc(F)cc(OC2CCN(CC(CC#N)n3cc(-c4ncnc5[nH]ccc45)cn3)CC2F)c1 (single isomer, unassigned) [Example 32 diastereomer 2] | – | < 5 | 5 to 25 | –
C[C@H]1CCCN1Cc1cc(F)cc(OC2CCN(CC(CC#N)n3cc(-c4ncnc5[nH]ccc45)cn3)CC2F)c1 (single isomer, unassigned) [Example 33 diastereomer 2] | – | < 5 | 25 to 100 | –
N#CCC(CN1CCC(Oc2cc(F)cc(F)c2)CC1)n1cc(-c2ncnc3[nH]ccc23)cn1 (stereo not shown) [Example 1, 4-[4-(3,5-Difluorophenoxy)piperidin-1-yl]-3-[4-(7H-pyrrolo[2,3-d]pyrimidin-4-yl)-1H-pyrazol-1-yl]butanenitrile tris(trifluoroacetate)] | 25 to 100 | – | – | 5 to 25
N#CCC(CN1CCC(Oc2cc(F)cc(Cl)c2)CC1)n1cc(-c2ncnc3[nH]ccc23)cn1 (stereo not shown) [Example 2] | 25 to 100 | – | – | < 5
N#CCC(CN1CCC(Oc2cc(F)cc(C(F)(F)F)c2)CC1)n1cc(-c2ncnc3[nH]ccc23)cn1 (stereo not shown) [Example 3, 4-{4-[3-Fluoro-5-(trifluoromethyl)phenoxy]piperidin-1-yl}-3-[4-(7H-pyrrolo[2,3-d]pyrimidin-4-yl)-1H-pyrazol-1-yl]butanenitrile tris(trifluoroacetate)] | > 100 | – | – | 5 to 25
N#CCC(CN1CCC(Oc2cc(F)c(F)c(F)c2)CC1)n1cc(-c2ncnc3[nH]ccc23)cn1 (stereo not shown) [Example 4, 3-[4-(7H-Pyrrolo[2,3-d]pyrimidin-4-yl)-1H-pyrazol-1-yl]-4-[4-(3,4,5-trifluorophenoxy)piperidin-1-yl]butanenitrile tris(trifluoroacetate)] | 25 to 100 | – | – | 5 to 25
N#CCC(CN1CCC(Oc2cc(F)cc(F)c2F)CC1)n1cc(-c2ncnc3[nH]ccc23)cn1 (stereo not shown) [Example 5, 3-[4-(7H-Pyrrolo[2,3-d]pyrimidin-4-yl)-1H-pyrazol-1-yl]-4-[4-(2,3,5-trifluorophenoxy)piperidin-1-yl]butanenitrile tris(trifluoroacetate)] | 5 to 25 | – | – | < 5
N#CCC(CN1CCC(Oc2cc(F)cc(C#N)c2)CC1)n1cc(-c2ncnc3[nH]ccc23)cn1 (stereo not shown) [Example 6, 3-[(1-{3-Cyano-2-[4-(7H-pyrrolo[2,3-d]pyrimidin-4-yl)-1H-pyrazol-1-yl]propyl}piperidin-4-yl)oxy]-5-fluorobenzonitrile tris(trifluoroacetate)] | 25 to 100 | – | – | < 5
CN(C)C(=O)c1cc(F)cc(OC2CCN(CC(CC#N)n3cc(-c4ncnc5[nH]ccc45)cn3)CC2)c1 (stereo not shown) [Example 8, 3-[(1-{3-Cyano-2-[4-(7H-pyrrolo[2,3-d]pyrimidin-4-yl)-1H-pyrazol-1-yl]propyl}piperidin-4-yl)oxy]-5-fluoro-N,N-dimethylbenzamide tris(trifluoroacetate)] | 5 to 25 | – | – | < 5
CC(C)NC(=O)c1cc(F)cc(OC2CCN(CC(CC#N)n3cc(-c4ncnc5[nH]ccc45)cn3)CC2)c1 (stereo not shown) [Example 11, 3-[(1-{3-Cyano-2-[4-(7H-pyrrolo[2,3-d]pyrimidin-4-yl)-1H-pyrazol-1-yl]propyl}piperidin-4-yl)oxy]-5-fluoro-N-isopropylbenzamide tris(trifluoroacetate)] | 5 to 25 | – | – | < 5
CC(C)(C)NC(=O)c1cc(F)cc(OC2CCN(CC(CC#N)n3cc(-c4ncnc5[nH]ccc45)cn3)CC2)c1 (stereo not shown) [Example 15, N-(tert-Butyl)-3-[(1-{3-cyano-2-[4-(7H-pyrrolo[2,3-d]pyrimidin-4-yl)-1H-pyrazol-1-yl]propyl}piperidin-4-yl)oxy]-5-fluorobenzamide tris(trifluoroacetate)] | < 5 | – | – | < 5
